# Source: patent publication US9670210B2, “Cyclopropylamines as LSD1 inhibitors” (Incyte Corporation, priority 2014, dated 2017)
# Biological target: LSD-1 enzyme (Homo sapiens (Human), UniProt O60341)
# Method: LSD1 Histone Demethylase Biochemical Assay
# LANCE LSD1/KDM1A demethylase assay-10 μL of 1 nM LSD-1 enzyme (ENZO BML-SE544-0050) in the assay buffer (50 mM Tris, pH 7.5, 0.01% Tween-20, 25 mM NaCl, 5 mM DTT) were preincubated for 1 hour at 25° C. with 0.8 μL compound/DMSO dotted in black 384 well polystyrene plates. […] After stopping the reactions plates were incubated for 30 minutes and read on a PHERAstar FS plate reader (BMG Labtech).
row,Structure (SMILES),IC50 [nM]
1,"COCC1(CN[C@@H]2C[C@H]2c2ccccc2)CCN(C(=O)c2ccn(CCC#N)n2)CC1 [Example 107, 3-(3-{[4-(methoxymethyl)-4-({[(1R,2S)-2-phenylcyclopropyl]amino}methyl)piperidin-1-yl]carbonyl}-1H-pyrazol-1-yl)propanenitrile]",< 100
2,"CC1(CN[C@@H]2C[C@H]2c2ccccc2)CCN(C(=O)c2c[nH]nc2N)CC1 [Example 50, 4-{[4-methyl-4-({[(1R,2S)-2-phenylcyclopropyl]amino}methyl)piperidin-1-yl]carbonyl}-1H-pyrazol-3-amine]",< 100
3,"COC1CCCN(C(=O)N2CC(CNC3CC3c3ccccc3)C2)C1 (stereo not drawn) [Example 15, N-({1-[(3-Methoxypiperidin-1-yl)carbonyl]azetidin-3-yl}methyl)-trans-2-phenylcyclopropanamine]",< 100
4,"O=C(N1CCC(C(F)(F)F)CC1)N1CC(CN[C@@H]2C[C@H]2c2ccccc2)C1 (relative stereo) [Example 13, Trans-2-phenyl-N-[(1-{[4-(trifluoromethyl)piperidin-1-yl]carbonyl}azetidin-3-yl)methyl]cyclopropanamine]",< 100
5,"COCC1(CN[C@@H]2C[C@H]2c2ccccc2)CCN(S(=O)(=O)c2ccnn2C)CC1 [Example 115, (1R,2S)—N-({4-(methoxymethyl)-1-[(1-methyl-1H-pyrazol-5-yl)sulfonyl]piperidin-4-yl}methyl)-2-phenylcyclopropanamine]",< 100
6,"COCC1(CN[C@@H]2C[C@H]2c2ccccc2)CCN(C(=O)C2CCN(C)CC2)CC1 [Example 41, (1R,2S)—N-({4-(methoxymethyl)-1-[(1-methylpiperidin-4-yl)carbonyl]piperidin-4-yl}methyl)-2-phenylcyclopropanamine]",< 100
7,"COCC1(CN[C@@H]2C[C@H]2c2ccccc2)CCN(S(=O)(=O)c2cnn(C)c2)CC1 [Example 114, (1R,2S)—N-({4-(methoxymethyl)-1-[(1-methyl-1H-pyrazol-4-yl)sulfonyl]piperidin-4-yl}methyl)-2-phenylcyclopropanamine]",< 100
8,"O=C(O)C1(CN2CCC(CN[C@@H]3C[C@H]3c3ccccc3)(Cc3ccc(F)cc3)CC2)CC1 [Example 31, 1-{[4-(4-fluorobenzyl)-4-({[(1R,2S)-2-phenylcyclopropyl]amino}methyl)piperidin-1-yl]methyl}cyclopropanecarboxylic acid]",< 100
9,"O=C(O)C1(CN2CCC(CN[C@@H]3C[C@H]3c3ccccc3)(COc3ncc(F)cn3)CC2)CC1 [Example 88, 1-{[4-{[(5-fluoropyrimidin-2-yl)oxy]methyl}-4-({[(1R,2S)-2-phenylcyclopropyl]amino}methyl)piperidin-1-yl]methyl}cyclopropanecarboxylic acid]",< 100
10,"CC1(CN[C@@H]2C[C@H]2c2ccccc2)CCN(C(=O)c2ccc(N)nn2)CC1 [Example 49, 6-{[4-methyl-4-({[(1R,2S)-2-phenylcyclopropyl]amino}methyl)piperidin-1-yl]carbonyl}pyridazin-3-amine]",< 100
11,"CC1(CN[C@@H]2C[C@H]2c2ccccc2)CCN(C(=O)C2(N)CCCC2)CC1 [Example 51, 1-{[4-methyl-4-({[(1R,2S)-2-phenylcyclopropyl]amino}methyl)piperidin-1-yl]carbonyl}cyclopentanamine]",< 100
12,"Cn1cnc(C(=O)N2CCC(C)(CN[C@@H]3C[C@H]3c3ccccc3)CC2)c1 [Example 47, (1R,2S)—N-({4-methyl-1-[(1-methyl-1H-imidazol-4-yl)carbonyl]piperidin-4-yl}methyl)-2-phenylcyclopropanamine]",< 100
13,"COCC1(CN[C@@H]2C[C@H]2c2ccccc2)CCN(CC2(C(=O)O)CCCC2)CC1 [Example 37, 1-{[4-(methoxymethyl)-4-({[(1R,2S)-2-phenylcyclopropyl]amino}methyl)piperidin-1-yl]methyl}cyclopentanecarboxylic acid]",< 100
